Tests used:
Test in all cases: KINOMEscan kinase binding assay (Eurofins/DiscoveRx), % Ctrl
kinases [1] = molecular target: T1, kinases (Homo sapiens, UniProt P00519); details: 1 μM
T1 construct: purchased Eurofins/DiscoveRx; host or cells: E. coli BL21-derived host (T7 phage display) for most kinases; HEK-293 for the rest
Method in brief: (§1)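 Competition binding, 1 h RT: phage-tagged or HEK-293-expressed DNA-tagged kinase + immobilized ligand + compound. Eluate kinase by qPCR. % Ctrl = (test − positive ctrl)/(negative ctrl − positive ctrl) × 100; lower means stronger binding.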

kinases [2] = molecular target: T2, kinases (Homo sapiens, UniProt P00519, E255K); details: 1 μM; target ABL1(E255K)-phosphorylated
T2 construct: purchased Eurofins/DiscoveRx; host or cells: E. coli BL21-derived host (T7 phage display) for most kinases; HEK-293 for the rest
Method in brief: as §1

kinases [3] = molecular target: T3, kinases (Homo sapiens, UniProt P00519, Q252H); details: 1 μM
T3 construct: purchased Eurofins/DiscoveRx; host or cells: E. coli BL21-derived host (T7 phage display) for most kinases; HEK-293 for the rest
Method in brief: as §1

kinases [4] = molecular target: T4, kinases (Homo sapiens, UniProt P00519, T315I); details: 1 μM
T4 construct: purchased Eurofins/DiscoveRx; host or cells: E. coli BL21-derived host (T7 phage display) for most kinases; HEK-293 for the rest
Method in brief: as §1

kinases [5] = molecular target: T5, kinases (Homo sapiens, UniProt P00533, DEL752-759); details: 1 μM; target EGFR(S752-I759del)
T5 construct: purchased Eurofins/DiscoveRx; host or cells: E. coli BL21-derived host (T7 phage display) for most kinases; HEK-293 for the rest
Method in brief: as §1

kinases [6] = molecular target: T6, kinases (Homo sapiens, UniProt P00533, L861Q); details: 1 μM; target EGFR(L861Q)
T6 construct: purchased Eurofins/DiscoveRx; host or cells: E. coli BL21-derived host (T7 phage display) for most kinases; HEK-293 for the rest
Method in brief: as §1

kinases [7] = molecular target: T7, kinases (Homo sapiens, UniProt P07949); details: 1 μM; target RET
T7 construct: purchased Eurofins/DiscoveRx; host or cells: E. coli BL21-derived host (T7 phage display) for most kinases; HEK-293 for the rest
T7 sequence (P07949 29-1114): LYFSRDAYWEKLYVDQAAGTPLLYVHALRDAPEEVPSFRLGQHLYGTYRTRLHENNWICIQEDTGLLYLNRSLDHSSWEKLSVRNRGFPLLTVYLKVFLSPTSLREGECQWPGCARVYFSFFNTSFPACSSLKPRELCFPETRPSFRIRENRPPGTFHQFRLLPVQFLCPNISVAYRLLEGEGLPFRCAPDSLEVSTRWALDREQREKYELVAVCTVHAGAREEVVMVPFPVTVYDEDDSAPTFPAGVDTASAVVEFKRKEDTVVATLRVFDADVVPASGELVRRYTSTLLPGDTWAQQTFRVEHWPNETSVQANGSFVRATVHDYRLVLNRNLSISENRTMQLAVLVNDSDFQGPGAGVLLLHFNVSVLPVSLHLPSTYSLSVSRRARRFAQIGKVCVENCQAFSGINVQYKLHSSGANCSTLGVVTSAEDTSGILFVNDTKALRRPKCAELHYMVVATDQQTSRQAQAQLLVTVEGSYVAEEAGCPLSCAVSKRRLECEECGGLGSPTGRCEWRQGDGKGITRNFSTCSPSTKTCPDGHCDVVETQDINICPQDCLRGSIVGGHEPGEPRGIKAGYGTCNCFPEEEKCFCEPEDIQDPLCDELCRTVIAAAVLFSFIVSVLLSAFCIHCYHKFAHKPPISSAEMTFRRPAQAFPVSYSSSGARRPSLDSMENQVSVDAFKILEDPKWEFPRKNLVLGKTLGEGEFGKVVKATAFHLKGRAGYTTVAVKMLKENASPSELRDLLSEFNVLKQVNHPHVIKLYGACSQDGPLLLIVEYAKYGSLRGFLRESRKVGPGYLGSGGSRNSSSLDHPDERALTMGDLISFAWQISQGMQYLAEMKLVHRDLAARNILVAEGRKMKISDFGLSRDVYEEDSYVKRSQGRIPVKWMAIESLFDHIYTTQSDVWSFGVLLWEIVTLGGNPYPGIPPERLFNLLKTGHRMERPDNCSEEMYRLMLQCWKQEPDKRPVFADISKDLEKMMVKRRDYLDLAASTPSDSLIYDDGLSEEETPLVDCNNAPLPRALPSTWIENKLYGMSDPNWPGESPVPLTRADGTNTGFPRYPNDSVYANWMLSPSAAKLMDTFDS
Method in brief: as §1

kinases [8] = molecular target: T8, kinases (Homo sapiens, UniProt P07949, M918T); details: 1 μM; target RET(M918T)
T8 construct: purchased Eurofins/DiscoveRx; host or cells: E. coli BL21-derived host (T7 phage display) for most kinases; HEK-293 for the rest
T8 sequence (P07949 29-1114 M918T): as the sequence (P07949 29-1114) above, with M890T counted along it
Method in brief: as §1

kinases [9] = molecular target: T9, kinases (Homo sapiens, UniProt P10721, D816H); details: 1 μM; target KIT(D816H)
T9 construct: purchased Eurofins/DiscoveRx; host or cells: E. coli BL21-derived host (T7 phage display) for most kinases; HEK-293 for the rest
T9 sequence (P10721 26-976 D816H): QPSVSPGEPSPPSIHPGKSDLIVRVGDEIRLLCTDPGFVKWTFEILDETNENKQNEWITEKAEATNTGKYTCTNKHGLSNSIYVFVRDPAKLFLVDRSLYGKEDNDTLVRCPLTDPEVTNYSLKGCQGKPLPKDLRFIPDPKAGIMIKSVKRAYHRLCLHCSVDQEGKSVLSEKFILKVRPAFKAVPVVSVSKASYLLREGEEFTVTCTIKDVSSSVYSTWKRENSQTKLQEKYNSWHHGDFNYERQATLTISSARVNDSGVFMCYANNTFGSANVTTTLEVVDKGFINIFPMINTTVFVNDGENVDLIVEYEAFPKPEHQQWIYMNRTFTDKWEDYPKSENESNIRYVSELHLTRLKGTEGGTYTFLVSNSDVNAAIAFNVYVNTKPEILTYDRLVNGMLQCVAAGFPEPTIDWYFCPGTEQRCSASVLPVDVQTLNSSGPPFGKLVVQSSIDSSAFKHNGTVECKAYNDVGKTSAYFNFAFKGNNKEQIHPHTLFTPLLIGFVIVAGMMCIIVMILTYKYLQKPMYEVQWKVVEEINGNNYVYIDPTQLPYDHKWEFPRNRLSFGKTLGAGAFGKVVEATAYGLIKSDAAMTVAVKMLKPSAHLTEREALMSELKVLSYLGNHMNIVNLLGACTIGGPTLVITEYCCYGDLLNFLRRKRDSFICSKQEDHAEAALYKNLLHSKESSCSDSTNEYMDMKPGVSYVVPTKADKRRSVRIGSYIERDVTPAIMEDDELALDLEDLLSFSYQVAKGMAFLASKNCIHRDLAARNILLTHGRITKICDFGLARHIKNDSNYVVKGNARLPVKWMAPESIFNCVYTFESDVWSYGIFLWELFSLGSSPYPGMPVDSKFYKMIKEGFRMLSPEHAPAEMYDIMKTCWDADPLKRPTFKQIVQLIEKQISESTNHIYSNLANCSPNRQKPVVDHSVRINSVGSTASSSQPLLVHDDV
Method in brief: as §1

kinases [10] = molecular target: T10, kinases (Homo sapiens, UniProt P10721, V559D); details: 1 μM; target KIT(V559D)
T10 construct: purchased Eurofins/DiscoveRx; host or cells: E. coli BL21-derived host (T7 phage display) for most kinases; HEK-293 for the rest
T10 sequence (P10721 26-976 V559D): as the sequence (P10721 26-976 D816H) above, with V534D, H791D counted along it
Method in brief: as §1

kinases [11] = molecular target: T11, kinases (Homo sapiens, UniProt P16234); details: 1 μM; target PDGFRA
T11 construct: purchased Eurofins/DiscoveRx; host or cells: E. coli BL21-derived host (T7 phage display) for most kinases; HEK-293 for the rest
T11 sequence (P16234 24-1089): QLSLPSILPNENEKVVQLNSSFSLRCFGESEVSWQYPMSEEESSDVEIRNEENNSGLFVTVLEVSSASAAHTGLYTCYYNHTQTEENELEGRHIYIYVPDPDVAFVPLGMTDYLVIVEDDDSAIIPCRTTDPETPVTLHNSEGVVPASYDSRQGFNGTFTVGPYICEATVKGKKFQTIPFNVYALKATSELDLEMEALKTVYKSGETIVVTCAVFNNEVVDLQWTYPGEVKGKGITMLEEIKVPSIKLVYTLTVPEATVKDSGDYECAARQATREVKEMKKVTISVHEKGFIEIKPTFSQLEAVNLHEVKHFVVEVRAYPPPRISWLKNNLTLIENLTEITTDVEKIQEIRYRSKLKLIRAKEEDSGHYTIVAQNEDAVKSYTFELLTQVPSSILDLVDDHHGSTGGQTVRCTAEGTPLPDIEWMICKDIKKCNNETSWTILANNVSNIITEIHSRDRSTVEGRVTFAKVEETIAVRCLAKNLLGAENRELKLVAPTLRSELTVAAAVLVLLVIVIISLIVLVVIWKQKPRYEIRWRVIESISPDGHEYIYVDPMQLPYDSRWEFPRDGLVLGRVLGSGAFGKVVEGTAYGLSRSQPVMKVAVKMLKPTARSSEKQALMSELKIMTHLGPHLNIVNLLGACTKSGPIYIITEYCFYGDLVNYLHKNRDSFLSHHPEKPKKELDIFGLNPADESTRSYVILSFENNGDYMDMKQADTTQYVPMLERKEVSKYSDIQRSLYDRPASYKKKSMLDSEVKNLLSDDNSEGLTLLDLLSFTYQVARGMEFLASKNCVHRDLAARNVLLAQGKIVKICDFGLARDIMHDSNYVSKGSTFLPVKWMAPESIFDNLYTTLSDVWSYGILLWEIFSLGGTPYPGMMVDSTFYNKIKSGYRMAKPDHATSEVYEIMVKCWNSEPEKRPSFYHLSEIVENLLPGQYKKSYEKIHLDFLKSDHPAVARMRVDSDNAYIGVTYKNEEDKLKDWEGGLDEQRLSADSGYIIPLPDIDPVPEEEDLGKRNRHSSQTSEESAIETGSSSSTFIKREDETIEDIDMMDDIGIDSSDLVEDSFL
Method in brief: as §1

kinases [12] = molecular target: T12, kinases (Homo sapiens, UniProt P36888); details: 1 μM
T12 construct: purchased Eurofins/DiscoveRx; host or cells: E. coli BL21-derived host (T7 phage display) for most kinases; HEK-293 for the rest
T12 sequence (P36888 27-993): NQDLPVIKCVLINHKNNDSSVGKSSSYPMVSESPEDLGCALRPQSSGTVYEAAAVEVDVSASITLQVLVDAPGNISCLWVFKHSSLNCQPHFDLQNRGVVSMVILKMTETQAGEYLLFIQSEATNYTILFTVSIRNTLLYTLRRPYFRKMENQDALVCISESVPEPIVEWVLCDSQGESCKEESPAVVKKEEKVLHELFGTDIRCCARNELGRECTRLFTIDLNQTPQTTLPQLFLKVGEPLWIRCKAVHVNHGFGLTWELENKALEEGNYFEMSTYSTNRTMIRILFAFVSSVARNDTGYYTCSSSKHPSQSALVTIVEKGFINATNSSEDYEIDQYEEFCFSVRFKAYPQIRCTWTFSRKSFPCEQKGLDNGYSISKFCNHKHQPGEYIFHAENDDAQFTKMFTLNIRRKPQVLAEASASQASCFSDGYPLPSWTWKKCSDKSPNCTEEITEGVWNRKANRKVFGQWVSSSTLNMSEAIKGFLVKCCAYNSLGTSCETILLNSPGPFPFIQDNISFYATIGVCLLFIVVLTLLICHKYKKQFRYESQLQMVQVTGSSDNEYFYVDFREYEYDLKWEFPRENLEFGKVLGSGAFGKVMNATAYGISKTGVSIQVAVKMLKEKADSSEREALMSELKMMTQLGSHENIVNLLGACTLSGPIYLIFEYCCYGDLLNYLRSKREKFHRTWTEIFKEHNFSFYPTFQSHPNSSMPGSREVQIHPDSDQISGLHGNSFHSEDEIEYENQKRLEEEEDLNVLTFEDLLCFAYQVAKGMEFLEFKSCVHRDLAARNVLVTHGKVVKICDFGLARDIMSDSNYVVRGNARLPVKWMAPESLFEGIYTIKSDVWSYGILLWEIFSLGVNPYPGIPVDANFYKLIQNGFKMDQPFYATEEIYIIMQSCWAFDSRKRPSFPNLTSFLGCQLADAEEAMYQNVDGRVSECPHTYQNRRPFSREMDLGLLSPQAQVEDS
Method in brief: as §1

kinases [13] = molecular target: T13, kinases (Homo sapiens, UniProt P42684); details: 1 μM; target ABL2
T13 construct: purchased Eurofins/DiscoveRx; host or cells: E. coli BL21-derived host (T7 phage display) for most kinases; HEK-293 for the rest
T13 sequence (P42684 whole entry): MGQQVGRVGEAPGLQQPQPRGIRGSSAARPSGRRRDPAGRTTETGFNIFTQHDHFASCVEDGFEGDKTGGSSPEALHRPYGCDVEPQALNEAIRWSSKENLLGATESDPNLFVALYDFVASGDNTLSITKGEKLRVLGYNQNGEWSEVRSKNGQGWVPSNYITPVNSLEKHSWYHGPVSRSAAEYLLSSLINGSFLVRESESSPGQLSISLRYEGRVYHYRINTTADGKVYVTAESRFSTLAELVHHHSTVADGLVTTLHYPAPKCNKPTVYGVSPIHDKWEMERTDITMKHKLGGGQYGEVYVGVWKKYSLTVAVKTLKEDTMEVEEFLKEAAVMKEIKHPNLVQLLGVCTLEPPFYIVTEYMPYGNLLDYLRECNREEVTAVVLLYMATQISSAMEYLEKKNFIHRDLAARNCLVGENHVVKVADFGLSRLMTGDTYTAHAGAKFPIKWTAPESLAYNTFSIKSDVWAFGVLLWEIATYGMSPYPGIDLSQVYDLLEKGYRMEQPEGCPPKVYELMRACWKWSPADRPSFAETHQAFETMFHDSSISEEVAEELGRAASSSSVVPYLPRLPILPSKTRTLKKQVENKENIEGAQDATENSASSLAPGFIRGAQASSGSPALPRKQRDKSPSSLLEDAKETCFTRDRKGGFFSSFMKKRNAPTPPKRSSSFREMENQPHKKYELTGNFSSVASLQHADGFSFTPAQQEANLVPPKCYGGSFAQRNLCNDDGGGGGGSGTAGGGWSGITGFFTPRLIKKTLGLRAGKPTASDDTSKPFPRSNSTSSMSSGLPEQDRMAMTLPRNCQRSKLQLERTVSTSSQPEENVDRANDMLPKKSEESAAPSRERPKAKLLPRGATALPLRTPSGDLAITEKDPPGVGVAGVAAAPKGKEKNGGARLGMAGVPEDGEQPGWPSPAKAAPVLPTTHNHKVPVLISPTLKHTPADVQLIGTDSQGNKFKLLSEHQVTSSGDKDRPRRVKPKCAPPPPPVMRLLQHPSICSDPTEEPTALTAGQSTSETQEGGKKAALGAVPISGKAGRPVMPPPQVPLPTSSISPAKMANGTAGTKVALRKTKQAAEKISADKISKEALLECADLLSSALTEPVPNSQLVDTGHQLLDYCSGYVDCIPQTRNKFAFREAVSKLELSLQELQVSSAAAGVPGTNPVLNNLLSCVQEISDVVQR
Method in brief: as §1

With `Cc1cc2c([nH]1)/C=C1\C(=O)Nc3cnc(cc31)-c1cnn(C)c1CN(C)CCN(C)C2=O` [Ex. 172, [3a(4)Z]-6,9,12,14-tetramethyl-9,10,11,12,13,14-hexahydro-17,1-(azenometheno)pyrazolo[4,3-m]dipyrrolo[3,2-f:3′,4′-i][1,4]diazacyclopentadecine-3,8(2H,5H)-dione] the “% Ctrl, ABL1-nonphosphorylated” value (kinases [1]; target ABL1-nonphosphorylated) was 0.6 % Ctrl, the “% Ctrl, ABL1-phosphorylated” value (kinases [1]; target ABL1-phosphorylated) was 1.4 % Ctrl and the “% Ctrl, ABL1(E255K)-phosphorylated” value (kinases [2]) was 0.4 % Ctrl. For the same compound, the “% Ctrl, ABL1(Q252H)-nonphosphorylated” value (kinases [3]; target ABL1(Q252H)-nonphosphorylated) was 0.3 % Ctrl, the “% Ctrl, ABL1(Q252H)-phosphorylated” value (kinases [3]; target ABL1(Q252H)-phosphorylated) was 0.1 % Ctrl and the “% Ctrl, ABL1(T315I)-nonphosphorylated” value (kinases [4]; target ABL1(T315I)-nonphosphorylated) was 0 % Ctrl. For the same compound, the “% Ctrl, ABL1(T315I)-phosphorylated” value (kinases [4]; target ABL1(T315I)-phosphorylated) was 1.7 % Ctrl, the “% Ctrl, EGFR(S752-I759del)” value (kinases [5]) was 37 % Ctrl and the “% Ctrl, EGFR(L861Q)” value (kinases [6]) was 75 % Ctrl. The “% Ctrl, RET” value (kinases [7]) was 3.1 % Ctrl, the “% Ctrl, RET(M918T)” value (kinases [8]) was 0.8 % Ctrl and the “% Ctrl, KIT(D816H)” value (kinases [9]) was 6.4 % Ctrl. The “% Ctrl, KIT(V559D)” value (kinases [10]) was 42 % Ctrl, the “% Ctrl, PDGFRA” value (kinases [11]) was 44 % Ctrl and the “% Ctrl, FLT3” value (kinases [12]; target FLT3) was 8.5 % Ctrl. For the same compound, the “% Ctrl, FLT3-autoinhibited” value (kinases [12]; target FLT3-autoinhibited) was 90 % Ctrl and the “% Ctrl, ABL2” value (kinases [13]) was 4.2 % Ctrl.
